The term IC50 denotes the midpoint of a concentration-inhibition curve. Broadly, the inhibition is the percentage by which the read-out fell short of the control. The term AC50 denotes the midpoint of the concentration-response curve, whichever way the signal moves.

Data set [1] addresses T1, recombinant human (rh) GCPII (Homo sapiens, UniProt Q04609).
T1 construct: purchased Sino Biological
The data set can be described thus: nanoDSF thermal shift assay. The data set is classed as binding. As to conditions: for Tm of GCPII in the presence of compound: compound at 250 μM, DMSO Tm 78.93 °C; for shift in Tm (Δ): compound at 25 μM, vs DMSO. The method, then: nanoDSF experiments were performed to assess the thermal stability of GCPII in the presence of various inhibitors. Protein samples were prepared at a concentration of 0.15 mg/mL in 50 mM Tris-HCl (pH 7.4), 1 mM CoCl2, 150 mM NaCl, and 0.01% Tween-20. Samples were incubated at 25 °C for 30 min prior to measurement with shaking at 1,000 rpm. Thermal unfolding was monitored using a Prometheus Panta nanoDSF instrument using standard capillaries (NanoTemper Technologies). The intrinsic fluorescence at 350 nm and 330 nm was recorded as a function of temperature, and the fluorescence ratio (350/330 nm) and its first derivative were used to track protein unfolding. A thermal gradient from 25 °C to 95 °C was applied at a rate of 0.5 °C per minute. The melting temperature (Tm) was determined from the global maximum of the first derivative of the fluorescence ratio curve. Each condition was tested in at least three independent replicates, and data was analyzed using PR. ThermControl software (NanoTemper Technologies). One-way ANOVA with multiple comparisons to the DMSO vehicle control group was used to determine significant shifts from the control thermal unfolding profile.

Data set [2] deals with GCPII. The following applies: prior art compound, value given when selected for assay validation; no reference given; cited from earlier work.
For data set [3], the target named is T2, GCPII (Homo sapiens, UniProt Q04609). The data set can be described thus: dual-stream LC/MS/MS GCPII substrate cleavage (inhibition) assay. The data set is classed as biochemical. The arrangement: purchased Sino Biological. As to conditions: for Max resp (100uM) / HTS max resp: in % (unit assumed); for inhibition at 10 µM: read-out: inhibition relative to the DMSO and no enzyme controls; for IC50: follow up screening, triplicate IC50 values ± standard deviation, read-out: IC50 (mass spec assay). The method, then:
The novel high-throughput dual-stream liquid chromatography–tandem mass spectrometry method used to screen for this study was recently published ([Hoxie et al., 2024]). Briefly, a 5 μL solution containing recombinant GCPII (SinoBio) in Tris–HCl (pH 7.4) with 1 mM CoCl2 was dispensed using a BioRAPTR 2.0 Flying Reagent Dispenser (Let’s Go Robotics) into 384-well assay plates (Greiner 784,201) pre-spotted with 100 nL of compound in DMSO using an Echo 655 Acoustic Liquid Handler (Beckman). Enzyme and compound were incubated for 15 min prior to the addition of 5 μL of ^13C5 ^15N-acetylaspartylglutamate (Aldrich). After 30 min s at room temperature, reactions were quenched using 0.2 μM D3-glutamate in LC/MS-grade acetonitrile and 0.1% formic acid. A 2-min liquid chromatography method utilizing a 2.1 × 30 mm BEH Amide HILIC column (Waters) was used to resolve glutamate from NAA and NAAG. A Sciex 6,500+ Q-Trap mass spectrometer was utilized for MS/MS quantification of released glutamate in the presence of compound. The integrated peak areas were normalized against the d3-glutamate internal standard, and then degree of inhibition was calculated using replicates containing no enzyme and enzyme with equivalent volumes of DMSO. Compounds were initially screened in a 10 μL reaction volume with 10 μM (final) compound dissolved in DMSO. […] To further increase throughput and the efficiency of screening, LC/MS analysis of libraries was conducted in dual-stream mode on an LS-1 autosampler (Sound Analytics).

The next data set concerns the target T3, human rGCPII (Homo sapiens, UniProt Q04609).
T3 construct: purchased Sino Biological
Nature of the data set: orthogonal radioenzymatic GCPII inhibition assay (3H-NAAG). The data set is classed as biochemical. As to conditions: NAA[3H]G 30 nM, GCPII 40 pM, 37 °C, 25 min. How it is done:
Radioenzymatic assay using ^3H-NAAG was performed as previously described ([Barinka et al., 2002]). Briefly, a 50 μL reaction mixture containing NAA [^3H]G (30 nM, 49 μCi/nmol) and GCPII (40 pM), in Tris-HCl (pH 7.4, 40 mM) with 1 mM CoCl2 was incubated at 37 °C for 25 min and stopped with 50 μL ice-cold sodium phosphate buffer (pH 7.5, 0.1 M). AG1X8 ion-exchange resin was used to separate cleaved [^3H]glutamate, and the flowthrough was transferred to solid scintillator-coated 96-well plates (Packard) and allowed to dry. Radioactivity was measured by a Topcount NXT from Packard. Each compound was run in duplicate, and 6–8-point dose-response curves were generated.

In data set [4] the target is T2, GCPII. Nature of the data set: mode of inhibition study (radioenzymatic assay, varied NAA[3H]G, Michaelis-Menten analysis). As to conditions: for Ki: Ki (secondary plot Km app/Vmax vs [inhibitor], −X intercept), 40 pM GCPII; for mode of inhibition: NAAG as substrate.
Procedure: The mode of inhibition was also determined as previously described following the same procedure as the radioenzymatic-based IC50 assay but with modification of the concentrations of NAA [^3H]G. ([Barinka et al., 2002]). […] A Michaelis-Menten kinetics analysis was done to determine the Km and Vmax at each inhibitor concentration.
A short description of data set [5]: pharmacokinetic and brain penetration study in mice. In kind it is in vivo. The following applies: 100 mg/kg IP, C57BL/6 mice. The method, then:
Pharmacokinetic studies in mice were approved by the Animal Care and Use Committee at Johns Hopkins University. Male C57BL/6 mice (25–30 g) were housed under a 12-h light-dark cycle with ad libitum access to food and water. Cefsulodin was administered intraperitoneally (IP) at a dosage of 100 mg/kg prepared freshly (5% DMSO and 95% HEPES saline v/v) with a dosing volume of 10 mL/kg. Blood and brain tissue samples were collected at 0.083–3 h post-administration (n = 3 per time point). Blood was obtained via cardiac puncture, and plasma was separated by low-speed centrifugation at 3,000 × g for 15 min and stored at −80 °C. Brain tissues were harvested, and immediately frozen in liquid nitrogen, and stored at −80 °C until analyses.
As cefsulodin is known to be unstable, plasma and brain tissue samples were prepared with the addition of 2% formic acid in water to adjust the pH to 5 ([Lecaillon et al., 1982]). For quantification of cefsulodin, plasma samples were diluted 10-fold with blank plasma, and a total of 40 μL of plasma was extracted using a protein precipitation method by adding methanol containing the internal standard (diclofenac, 1 μM). The mixture was vortex-mixed for 30 s and centrifuged at 14,000 rpm for 5 min at 4 °C. Brain tissues were homogenized in methanol at a 1:5 (w/v) ratio. A 50 μL aliquot of the homogenate was precipitated with methanol containing the internal standard, vortex-mixed, and centrifuged at 14,000 rpm for 5 min at 4 °C. A 150 μL aliquot of the supernatant was transferred to a polypropylene vial sealed with a Teflon cap and analyzed by liquid chromatography with tandem mass spectrometric methods (LC-MS/MS) as described below.
Cefsulodin concentrations in mouse plasma and brain were measured using a Shimadzu Nexera X2 LC-40D system (Shimadzu Corporation, Kyoto, Japan) coupled with an API 6500 triple quadrupole mass spectrometer (AB Sciex, Redwood City, CA, United States). […] Quantitation was performed in multiple reaction monitoring (MRM) mode using cefsulodin (533.03 > 123.03) and diclofenac as the internal standard (296.13 > 215.03) ([Zhou et al., 2024]; [Park et al., 2024]). Calibration curves were constructed over the range of 0.01–100 nmol/mL or nmol/g for plasma and brain, respectively.
Plasma concentrations (nmol/mL) and brain concentrations (nmol/g) were determined, and mean concentration-time profiles were plotted for pharmacokinetic analysis. Non-compartmental analysis was performed using the Phoenix WinNonlin software version 8.4 (Certara United States, Inc., Princeton, NJ) to calculate pharmacokinetic parameters, including the maximum concentration (Cmax), time to Cmax (Tmax), and area under the concentration-time curve (AUC0–t).

Setting [6] is: maximum response at 100uM, dose response.
The mark [7] stands for this setting: library screening, seven-point dose response, read-out: AC50.

SMILES strings stand for the structures. Values joined by “and” are separate entries in the source; they are usually repeats but may differ in a detail not shown here. Identical values can stand only once. Like-named read-outs stand apart in the source and are kept apart here.

T2 sequence (Q04609 whole entry): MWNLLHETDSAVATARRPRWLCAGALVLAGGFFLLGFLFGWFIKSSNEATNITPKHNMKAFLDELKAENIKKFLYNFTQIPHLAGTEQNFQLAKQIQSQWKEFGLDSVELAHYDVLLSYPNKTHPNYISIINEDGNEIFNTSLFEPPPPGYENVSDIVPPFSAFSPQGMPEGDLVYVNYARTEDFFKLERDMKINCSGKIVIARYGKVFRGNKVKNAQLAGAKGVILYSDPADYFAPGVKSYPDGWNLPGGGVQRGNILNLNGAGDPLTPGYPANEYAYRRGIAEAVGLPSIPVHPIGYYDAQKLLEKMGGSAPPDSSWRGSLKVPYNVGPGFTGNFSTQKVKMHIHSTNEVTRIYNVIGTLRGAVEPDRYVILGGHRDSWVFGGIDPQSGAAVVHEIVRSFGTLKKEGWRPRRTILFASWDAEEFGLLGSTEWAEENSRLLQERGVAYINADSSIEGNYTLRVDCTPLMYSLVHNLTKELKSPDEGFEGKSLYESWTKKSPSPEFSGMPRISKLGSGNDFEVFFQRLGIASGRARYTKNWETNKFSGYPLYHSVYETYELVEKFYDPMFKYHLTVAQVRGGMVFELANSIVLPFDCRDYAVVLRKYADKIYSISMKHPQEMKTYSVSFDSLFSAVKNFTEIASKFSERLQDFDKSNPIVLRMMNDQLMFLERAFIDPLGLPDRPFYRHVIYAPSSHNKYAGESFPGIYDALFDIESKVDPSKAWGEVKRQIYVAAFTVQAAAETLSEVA
T3 sequence (Q04609 whole entry): as above
T1 sequence (Q04609 whole entry): as above

As to `O=C(O)CCC(CCCS)C(=O)O` (stereo not shown) [2-MPPA, 2-(3-mercaptopropyl)pentanedioic acid], the “Tm of GCPII in the presence of compound” value in data set [1] was 79.25 °C. Also, the half-inhibitory concentration (IC50) with GCPII [2] is 90 nM. On GCPII [3] (setting [6]), the “Max resp (100uM)” value is reported as −96.75. For the same molecule, the HTS max resp at GCPII [3] (primary high-throughput screen) is on record as −100.00. Also, on GCPII [3] (single point screen at 10 µM), the inhibition at 10 µM is at least 50%.

As for `O=C(O)CCC(CP(=O)(O)O)C(=O)O` (stereo not shown) [2-PMPA, 2-(phosphonomethyl)pentanedioic acid], the “Tm of GCPII in the presence of compound” value in data set [1] turned out to be 90.70 °C. Moreover, the IC50 in the data set with GCPII [2] was […]. For the same molecule, on GCPII [3] (setting [6]), the “Max resp (100uM)” value is listed as −98.19. The same molecule returned an HTS max resp on GCPII [3] (primary high-throughput screen) of −100.00. Besides, the inhibition at 10 µM at GCPII [3] (single point screen at 10 µM) is at least 50%.

The molecule `O=S(=O)(O)c1ccc2c(/N=N/c3ccc(S(=O)(=O)O)c4ccccc34)c(O)c(S(=O)(=O)O)cc2c1` [Amaranth] returned an IC50 on human rGCPII of 300 ± 10 nM. In data set [1], the “shift in Tm (Δ)” value was 0.76 °C. For the same molecule, the 50% inhibitory concentration (IC50) at GCPII [3] was 1.5 ± 0.3 µM. Moreover, the AC50 on GCPII [3] (setting [7]) turned out to be 2.5 µM. In addition, the “Max resp (100uM)” value on GCPII [3] (setting [6]) is given as −101.68. The same molecule showed an HTS max resp on GCPII [3] (primary high-throughput screen) of −101.93. Further, on GCPII [4], the Ki was 1100 ± 60 nM and the mode of inhibition result was “non-competitive inhibition”.

Take `O=C(O)C1=C(CSc2nnnn2CS(=O)(=O)O)CS[C@@H]2[C@H](NC(=O)[C@H](O)c3ccccc3)C(=O)N12` [Cefonicid sodium]: the IC50 was found to be 4900 ± 2000 nM at human rGCPII and 32 ± 2 µM at GCPII [3].

With `NCc1ccccc1CC(=O)N[C@@H]1C(=O)N2C(C(=O)O)=C(CSc3nnnn3CC(=O)O)CS[C@H]12` [Ceforanide], the IC50 worked out at 14000 ± 6000 nM against human rGCPII and 29 ± 0.4 µM at GCPII [3].

As for `CO[C@@]1(NC(=O)C2SC(=C(C(N)=O)C(=O)O)S2)C(=O)N2C(C(=O)O)=C(CSc3nnnn3C)CS[C@@H]21` (stereo partly shown) [Cefotetan], the figures for the IC50 against human rGCPII and on GCPII [3] were 2000 ± 1000 nM and 9.7 ± 3 µM, respectively.

`NC(=O)c1cc[n+](CC2=C(C(=O)O)N3C(=O)[C@@H](NC(=O)[C@@H](c4ccccc4)S(=O)(=O)[O-])[C@H]3SC2)cc1` [Cefsulodin] displayed an IC50 against human rGCPII of 2000 ± 100 nM. Moreover, the “shift in Tm (Δ)” value in data set [1] was 0.65 (±0.07) °C. Further, the brain penetration index result in data set [5] is “low”. In data set [5] (brain), the “brain Cmax” value was 4 µM and 4.9 µM; the “brain exposure (AUC)” value was determined as 4.36 ± 1.12 nmol·h/g. The “time of brain Cmax” value in data set [5] (brain, post-dose) turned out to be 30 min. Besides, the IC50 on GCPII [3] was 3.6 ± 0.3 µM. The AC50 on GCPII [3] (setting [7]) was determined as 3.9 µM. The “Max resp (100uM)” value at GCPII [3] (setting [6]) is −98.19. The molecule further yielded an HTS max resp at GCPII [3] (primary high-throughput screen) of −92.18. In addition, on GCPII [4], the Ki is 2500 nM and 2000 nM; the mode of inhibition result is reported as “competitive, active-site inhibition”.

With `Nc1nc(=O)c2nc(CNc3ccc(C(=O)N[C@@H](CCC(=O)O)C(=O)O)cc3)cnc2[nH]1` [Folic Acid], the inhibition at 10 µM at GCPII [3] (single point screen at 10 µM) is at least 50%.

Turning to `CC1(C)C(/C=C/C=C/C=C/C=C2\N(CCCCS(=O)(=O)O)c3ccc4ccccc4c3C2(C)C)=[N+](CCCCS(=O)(=O)[O-])c2ccc3ccccc3c21` [Indocyanine green], the results for the IC50 on human rGCPII and at GCPII [3] were 1900 ± 300 nM and 11 ± 0.2 µM, respectively.

Consider `N[C@@H](Cn1oc(=O)[nH]c1=O)C(=O)O` [L-Quisqualic acid], for which the IC50 in the data set with GCPII [2] is 10000 nM. On GCPII [3], the AC50 was 7.9 µM, the HTS max resp is listed as −93.07, the “Max resp (100uM)” value was −91.35 and the inhibition at 10 µM was at least 50%.

`CN(Cc1cnc2nc(N)nc(N)c2n1)c1ccc(C(=O)N[C@@H](CCC(=O)O)C(=O)O)cc1` [Methotrexate]: on GCPII [3] (single point screen at 10 µM), the inhibition at 10 µM is at least 50%.

For `O=C1OC(c2ccc(O)c(S(=O)(=O)O)c2)(c2ccc(O)c(S(=O)(=O)O)c2)c2c(Br)c(Br)c(Br)c(Br)c21` [Sulfobromophthalein], the IC50 worked out at 230 ± 100 nM on human rGCPII and 0.4 ± 0.1 µM on GCPII [3].

Take `Cc1cc(-c2ccc(/N=N/c3c(S(=O)(=O)O)cc4cc(S(=O)(=O)O)cc(N)c4c3O)c(C)c2)ccc1/N=N/c1c(S(=O)(=O)O)cc2cc(S(=O)(=O)O)cc(N)c2c1O` [Trypan blue]: the IC50 against human rGCPII amounted to 210 ± 50 nM; on GCPII [3], 2.1 ± 0.4 µM.

The record behind these values is PMC12568586, “Mass spectrometry-guided discovery of novel GCPII inhibitor scaffolds” (Frontiers in Pharmacology, 2025).
